The values that follow are results of earlier work, collected in publication PMC2699040 (European Journal of Immunology, 2007).

Series [1] has as its system CTL line specific for the influenza epitope KTGGAIYKR
To be noted: alanine-substituted at all but a single non-MHC anchor position; ref [14]; cited from earlier work.

The test system of series [2] is SC21 peripheral blood lymphocytes. The note with it: adapted IFN-γ ELISPOT, directly ex vivo; ref [18]; cited from earlier work.

Take ATAAAIAAR: the “Recognition by CTL line” value in series [1] is “recognise efficiently”.
FHCQVCFTTKALGISYGRKK [Tat4 peptide]: in series [2], the “HLA-A68-restricted response / antigenicity” value is “An HLA-A68-restricted response”.
